Assay results reported in patent publication US20060167001A1, “Pyridazinone-derivatives as pde4 inhibitors” (priority 2002, published 2006).
Structures can show the parent of a compound that is named as a salt.

Key:
PDE3 (cGMP-inhibited) = target: T1, PDE3 (cGMP-inhibited) (Homo sapiens, UniProt Q14432); assay: Inhibition of PDE3 activity, Method A (homogenates of human platelets); format: biochemical; conditions: read-out: PDE3 Inhibition [measured as −logIC50 (mol/l)] (converted)
T1 construct: investigated in homogenates of human platelets; from tissue; host or cells: homogenates of human platelets
T1 sequence (Q14432 whole entry): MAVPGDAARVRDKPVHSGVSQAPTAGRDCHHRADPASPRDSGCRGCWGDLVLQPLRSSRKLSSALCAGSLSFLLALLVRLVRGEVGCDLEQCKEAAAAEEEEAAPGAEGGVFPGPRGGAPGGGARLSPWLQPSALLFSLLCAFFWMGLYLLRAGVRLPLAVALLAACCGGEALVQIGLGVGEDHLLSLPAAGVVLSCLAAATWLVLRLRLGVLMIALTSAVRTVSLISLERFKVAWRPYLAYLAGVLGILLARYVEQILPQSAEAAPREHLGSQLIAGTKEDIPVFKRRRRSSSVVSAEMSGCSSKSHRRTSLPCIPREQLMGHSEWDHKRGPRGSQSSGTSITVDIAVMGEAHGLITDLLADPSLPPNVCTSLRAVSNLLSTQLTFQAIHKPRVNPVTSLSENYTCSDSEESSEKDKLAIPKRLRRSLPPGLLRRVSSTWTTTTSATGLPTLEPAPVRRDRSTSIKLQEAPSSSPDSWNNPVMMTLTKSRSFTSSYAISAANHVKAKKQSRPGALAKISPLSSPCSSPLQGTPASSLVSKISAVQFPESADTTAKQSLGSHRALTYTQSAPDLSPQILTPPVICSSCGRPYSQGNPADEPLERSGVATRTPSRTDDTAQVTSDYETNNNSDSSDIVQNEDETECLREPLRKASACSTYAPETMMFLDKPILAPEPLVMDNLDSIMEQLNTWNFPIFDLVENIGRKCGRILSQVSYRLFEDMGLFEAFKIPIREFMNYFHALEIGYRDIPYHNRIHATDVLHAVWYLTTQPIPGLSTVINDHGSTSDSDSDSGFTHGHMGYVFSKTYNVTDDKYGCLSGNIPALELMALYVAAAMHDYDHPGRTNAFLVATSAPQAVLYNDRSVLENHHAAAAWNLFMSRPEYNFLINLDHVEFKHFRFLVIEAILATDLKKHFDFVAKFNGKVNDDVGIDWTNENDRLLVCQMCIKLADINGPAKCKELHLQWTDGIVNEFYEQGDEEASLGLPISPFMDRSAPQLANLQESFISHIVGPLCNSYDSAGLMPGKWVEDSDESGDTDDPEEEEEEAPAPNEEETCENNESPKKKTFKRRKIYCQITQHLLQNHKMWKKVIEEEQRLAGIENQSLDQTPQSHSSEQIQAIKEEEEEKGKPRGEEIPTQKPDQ
Description: The PDE activity was determined according to Thompson et al. (Adv Cycl Nucl Res 10: 69-92, 1979) with some modifications (Bauer and Schwabe, Naunyn-Schmiedeberg's Arch Pharmacol 311: 193-198, 1980). The test samples contained 20 mM Tris (pH 7.4), 5 mM MgCl2, 0.5 μM cAMP or cGMP, [^3H]cAMP or [^3H]cGMP (about 30 000 cpm/sample), the PDE isoenzyme-specific additives described in greater detail below, the indicated concentrations of inhibitor and an aliquot of the enzyme solution in a total sample volume of 200 μl. Dilution series of the compounds according to the invention were prepared in DMSO and further diluted in the samples [1:100 (v/v)], to give the desired end concentration of the inhibitors at a DMSO concentration of 1% (v/v), which for its part has only a minute effect on PDE activity.
After preincubation at 37° C. for 5 minutes, the reaction was started by addition of the substrate (cAMP or cGMP). The samples were incubated at 37° C. for a further 15 min. The reaction was terminated by addition of 50 μl 0.2 N HCl. After cooling on ice for 10 minutes and addition of 25 μg 5′-nucleotidase (snake venom from Crotalus atrox), the mixture was again incubated at 37° C. for 10 mih and the samples were then applied to QAE Sephadex A-25 columns (sample volume 1 ml). The columns were eluted with 2 ml of 30 mM ammonium formate (pH 6.0). The radioactivity of the eluate was measured and corrected by the corresponding blank values (measured in the presence of denatured protein); the blank values were less than 5% of the total radioactivity. In no case did the proportion of hydrolyzed nucleotide exceed 30% of the original substrate concentration.
PDE3 (cGMP-inhibited) was investigated in homogenates of human platelets (see Schudt et al., Biochem Pharmacol 1991: 42, 153-162) using cAMP or cGMP as substrate.
The IC50 values were determined from the concentration-inhibition curves by nonlinear regression.

| SMILES | melting point | IC50 (PDE3 (cGMP-inhibited)) |
| --- | --- | --- |
| COc1ccc(C2=NN(C3CCNCC3)C(=O)CC2C)cc1OC.Cl (stereo not drawn) | 91 to 95 °C |  |
| COc1ccc(C2=NN(C3CCN(C(=O)CN4CCN(c5ccccc5OC)CC4)CC3)C(=O)CC2)cc1OC.Cl.Cl | 109 to 110 °C |  |
| COc1ccc(C2=NN(C3CCN(CC(=O)N4CCOCC4)CC3)C(=O)CC2)cc1OC (as salt: hydrochloride) [Compound 10, 6-(3,4-Dimethoxy-phenyl)-2-[1-(2-morpholin4-yl-2-oxo-ethyl)-piperidin-4-yl]-4,5-dihydro-2-pyridazin-3-one hydrochloride] | 145 to 148 °C |  |
| COc1ccc(C2=NN(C3CCN(C(C)=O)CC3)C(=O)CC2C)cc1OC (stereo not drawn) [Compound 4, 2-(1-Acetyl-piperidin-4-yl)-6-(3,4-dimethoxy-phenyl)-5-methyl-4,5-dihydro-2H-pyridazin-3-one] | 149 to 152 °C | 1740 nM |
| COc1ccc(C2=NN(C3CCN(C(=O)N4CCOCC4)CC3)C(=O)CC2C)cc1OC (stereo not drawn) [Compound 5] | 137 to 138 °C | 1780 nM |
| COc1ccc(C2=NN(C3CCN(Cc4cccnc4)CC3)C(=O)CC2C)cc1OC.Cl.Cl (stereo not drawn) [Compound 6, 6-(3,4-Dimethoxy-phenyl)-5-methyl-2-(1-pyridin-3-ylmethyl-piperidin-4-yl)-4,5-dihydro-2H-pyridazin-3-one dihydrochloride] | 241 to 244 °C | 5890 nM |
| CCN1CCN(C(=O)N2CCC(N3N=C(c4ccc(OC)c(OC)c4)CCC3=O)CC2)C(=O)C1=O [Compound 7] | 201 to 203 °C | > 10000 nM |
| COc1ccc(C2=NN(C3CCN(C(=O)N4CCN(C)CC4)CC3)C(=O)CC2)cc1OC.Cl [Compound 8, 6-(3,4-Dimethoxy-phenyl)-2-{1-[1-(4-methyl-piperazin-1-yl)-methanoyl]-piperidin-4-yl}-4,5-dihydro-2H-pyridazin-3-one hydrochloride] | 151 to 154 °C | > 10000 nM |
| COc1ccc(C2=NN(C3CCN(S(=O)(=O)c4cccc5c(N(C)C)cccc45)CC3)C(=O)CC2)cc1OC [Compound 9, 6-(3,4-Dimethoxy-phenyl)-2-[1-(5-dimethylamino-naphthalene-1-sulfonyl)-piperidin-4-yl]-4,5-dihydro-2-pyridazin-3-one] | 191 to 193 °C | 245 nM |
| COc1ccc(C2=NN(C3CCN(CC(=O)N4CCOCC4)CC3)C(=O)CC2)cc1OC [Compound 10, 6-(3,4-Dimethoxy-phenyl)-2-[1-(2-morpholin4-yl-2-oxo-ethyl)-piperidin-4-yl]-4,5-dihydro-2-pyridazin-3-one hydrochloride] |  | 4470 nM |
| COc1ccc(C2=NN(C3CCN(S(=O)(=O)c4ccc(C)cc4)CC3)C(=O)CC2)cc1OC [Compound 11, 6-(3,4-Dimethoxy-phenyl)-2-[1-(toluene-4-sulfonyl)-piperidin-4-yl]-4,5-dihydro-2H-pyridazin-3-one] | 179 to 184 °C | 501 nM |
| COc1ccc(C2=NN(C3CCN(S(C)(=O)=O)CC3)C(=O)CC2)cc1OC [Compound 12, 6-(3,4-Dimethoxy-phenyl)-2-(1-methanesulfonyl-piperidin-4-yl)-4,5-dihydro-2H-pyridazin-3-one] | 164 to 166 °C | 251 nM |
| COc1ccc(C2=NN(C3CCN(S(=O)(=O)c4ccc(Cl)cc4)CC3)C(=O)CC2)cc1OC [Compound 13, 2-[1-(4-Chloro-benzenesulfonyl)-piperidin-4-yl]-6-(3,4-dimethoxy-phenyl)-4,5-dihydro-2H-pyridazin-3-one] | 185 to 186 °C |  |
| COc1ccc(C2=NN(C3CCN(S(=O)(=O)Cc4ccccc4)CC3)C(=O)CC2)cc1OC [Compound 14, 6-(3,4-Dimethoxy-phenyl)-2-(1-phenylmethanesulfonyl-piperidin-4-yl)-4,5-dihydro-2H-pyridazin-3-one] | 114 °C | 251 nM |
| COc1ccc(S(=O)(=O)N2CCC(N3N=C(c4ccc(OC)c(OC)c4)CCC3=O)CC2)cc1 [Compound 15, 6-(3,4-Dimethoxy-phenyl)-2-[1-(4-methoxy-benzenesulfonyl)-piperidin-4-yl]-4,5-dihydro-2H-pyridazin-3-one] | 197 to 198 °C | 501 nM |
| COc1ccc(C2=NN(C3CCN(S(=O)(=O)c4ccccc4C#N)CC3)C(=O)CC2)cc1OC [Compound 18, 2-{4-[3-(3,4-Dimethoxy-phenyl)-6-oxo-5,6-dihydro-4H-pyridazin-1-yl]-piperidine-1-sulfonyl}-benzonitrile] | 158 to 160 °C | 79.4 nM |
| COc1ccc(C2=NN(C3CCN(S(=O)(=O)c4ccccc4F)CC3)C(=O)CC2)cc1OC [Compound 20, 6-(3,4-Dimethoxy-phenyl)-2-[1-(2-fluoro-benzenesulfonyl)-Piperidin-4-yl]-4,5-dihydro-2H-pyridazin-3-one] | 198 to 199 °C | 158 nM |
| COc1ccc(C2=NN(C3CCN(S(=O)(=O)c4ccccc4OC(F)(F)F)CC3)C(=O)CC2)cc1OC [Compound 21, 6-(3,4-Dimethoxy-phenyl)-2-[1-(2-trifluoromethoxy-benzenesulfonyl)-piperidin-4-yl]-4,5-dihydro-2H-pyridazin-3-one] | 118 to 119 °C | 100 nM |
| COc1ccc(C2=NN(C3CCN(S(=O)(=O)N(C)C)CC3)C(=O)CC2)cc1OC [Compound 22, 4-[3-(3,4-Dimethoxy-phenyl)-6-oxo-5,6-dihydro-4H-pyridazin-1-yl]-piperidine-1-sulfonic acid dimethylamide] | 103 to 106 °C |  |
| COc1ccc(C2=NN(C3CCN(C(=O)c4cccnc4)CC3)C(=O)CC2)cc1OC [Compound 24, 6-(3,4-Dimethoxy-phenyl)-2-[1-(1-pyridin-3-yl-methanoyl)-piperidin-4-yl]-4,5-dihydro-2H-pyridazin-3-one] | 162 to 164 °C |  |
| COc1ccc(C2=NN(C3CCN(C(=O)NC(C)(C)C)CC3)C(=O)CC2)cc1OC [Compound 26, 4-[3-(3,4-Dimethoxy-phenyl)-6-oxo-5,6-dihydro-4H-pyridazin-1-yl]-piperidine-1-carboxylic acid tert-butylamide] | 76 to 78 °C |  |
| COc1ccc(C2=NN(C3CCN(CC(=O)N(C)C)CC3)C(=O)CC2)cc1OC.Cl [Compound 27, 2-{4-[3-(3,4-Dimethoxy-phenyl)-6-oxo-5,6-dihydro-4H-pyridazin-1-yl]-piperidin-1-yl}-N,N-dimethylacetamide hydrochloride] | 121 to 122 °C | > 10000 nM |
